Test results reported in patent publication US20060002922A1, “Method for preventing or treating obesity by modulating the activities of the pentose phosphate patway” (Minkon Biotechnology, Inc., priority 2004, published 2006).

Columns and labels:
[1] = system: liver, heart and kidney of mice hosting Ehrlich's tumor; conditions: 400 mg/kg/day of OT; cited from earlier work
[2] = system: normal as well as fatty mice; assay: Higher dosage of OT: weight loss in normal and fatty mice; format: in vivo
Description: This is consistent with the result obtained from the published result of TKT haplo-insufficiency mice.

[3] = system: C57BL/6 mice fed with D12492; assay: Diet-induced obesity in C57BL/6 mice fed high fat diet D12492, oral OT; format: in vivo
Method: D12492 is a very high fat containing diet (with 60 kcal % fat), and has been widely used to induce obesity in rodents.
A dose of 10-20 mg/kg/day of OT was administered orally to C57BL/6 mice fed with D12492. […] In contrast, the control mice developed obesity.
4 groups of C57BL/6 mice (5 mice each group) were used to test the dosage dependence of oxythiamine on weight control. The negative control was fed a regular diet, and positive group was fed a high fat diet only. Test groups were fed high fat diet and each orally administered with OT at a concentration of 2 mg/kg/day or 10 mg/kg/day.

[4] = system: tumors in animals; conditions: 100-400 mg/kg of OT; cited from earlier work

## Cc1ncc(C[n+]2csc(CCO)c2C)c(=O)[nH]1 [OT, Oxythiamine]
[1]
  histotoxicity (signs of toxicity in liver, heart and kidney vs controls): No signs of toxicity were observed
[2]; 180 mg/kg/day, normal as well as fatty mice
  effect on body weight: strong effect of weight loss
[2]; OT fed mice
  fat mass: Preferential reduction of fat mass
[3]; 10-20 mg/kg/day orally, C57BL/6 mice fed D12492, control mice developed obesity
  development of diet-induced obesity: Diet-induced obesity was not developed
[3]; FIG. 1 study, high fat diet plus OT
  pathological studies of OT treated mice: near normal
[3]; OT as low as 2 mg/kg/day
  progression of obesity development: reduce the progression of obesity development significantly
[3]; mice fed D12492, test groups 2 or 10 mg/kg/day orally
  dosage dependence of prevention of weight gain: dosage dependent effects on preventing weight gain
[3]; mice fed D12492 plus OT
  growth rate compared to same age mice fed a standard diet: normal growth rate
[4]
  treatment of tumors in animals: successfully used to treat tumors
